Test results as given in patent publication US20040247571A1, “Neural cells expressing tyrosine hydroxylase” (priority 2001, published 2004).

Test system: Human neural progenitor cells expanded in EGF/bFGF/LIF (991013FBr)
Test: Importance of the various factors for TH induction
Format: cell-based
Conditions: one factor omitted from the cocktail of Example 1, 3 days
Method: Cultures of human neural progenitors established from human fetal forebrain expanded in N2 medium supplemented with EGF/bFGF/LIF or EGF/bFGF/CNTF as indicated were mechanically passaged and maintained in expansion medium for 5-7 days. The small spheres were then plated on glass coverslips coated with poly-L-lysine (PLL, 100 μg/ml) and laminin (50 μg/ml) at a cell density of 100.000 cells/cm^2 in N2 medium containing 1% FBS for “default differentiation” or in N2 medium supplemented with aFGF (100 ng/ml), BDNF (50 ng/ml), forskolin (25 μM), DA (10 μM), TPA (100 nM), dbcAMP (100 μM), GDNF (20 ng/ml), IGFI (100 ng/ml), IL-1α (200 pg/ml). N2 medium consists of DMEM:F12 (1:1) supplemented with N2 (insulin, transferrin, selenium, progesterone and putrescine), 0.6% glucose and 5 mM HEPES. After 3 days incubation, cells were fixed in 4% paraformaldehyde in PBS for 20 min at room temperature. The cells were washed three times with PBS, followed by overnight incubation with primary antibody (rabbit anti-TH, PelFreez 1:100 or Chemicon 1:800) diluted in PBS incubation buffer which contained 10% normal goat serum, 0.3% Triton X-100 (Sigma) and 1% BSA at 4° C. in a humidified chamber. The cells were washed with PBS, and incubated for 1 hr at room temperature in the dark with secondary antibody (anti-rabbit Cy3, (Chemicon 1:500) diluted in incubation buffer. After washing with PBS, nuclei were counterstained with DAPI or Hoechst 33342. Negative controls (omission of the primary antibody) were included in each experiment.
To quantify the percentage of TH cells, cells were counted in at least three fields from three to six independent coverslips randomly chosen using a 20× objective. The number of TH-immunoreactive cells in each field was counted. The total cell number was obtained by counting nuclei counterstained with DAPI or Hoechst 33342.
Human neural progenitor cells expanded in EGF/bFGF/LIF (991013FBr) cells were seeded as small spheres (5 days after trituration to single cell suspension) on PLL/laminin coated 12 mm coverslips at a cell density of 100.000 cells/cm^2 in N2 medium containing different combinations of the factors described in Example 1. After incubation for 3 days, cells were fixed in 4% PFA and immunostained for TH as described in Example 1.

Row | Molecule | effect of omitting the factor from the cocktail on induction of TH positive cells
1 | IGF-I: Insulins (IGF-I, IGF-II, insulin) | did not affect induction of TH positive cells
2 | BDNF: Brain Derived Neurotrophic Factor | did not affect induction of TH positive cells
3 | NCCc1ccc(O)c(O)c1 [dopamine, reference compound] | did not affect induction of TH positive cells
4 | GDNF: Glial cell-line Derived Neurotrophic Factor (protein, UniProt P39905 78-211, looked up) Glial cell line-derived …: SPDKQMAVLPRRERNRQAAAANPENSRGKGRRGQRGKNRGCVLTAIHLNVTDLGLGYETKEELIFRYCSGSCDAAETTYDKILKNLSRNRRLVSDKVGQACCRPIAFDDDLSFLDDNLVYHILRKHSAKRCGCI | did not affect induction of TH positive cells
5 | IL-1α: Interleukin (protein, UniProt P01583 113-271, looked up) Interleukin-1 alpha: SAPFSFLSNVKYNFMRIIKYEFILNDALNQSIIRANDQYLTAAALHNLDEAVKFDMGAYKSSKDDAKITVILRISKTQLYVTAQDEDQPVLLKEMPEIPKTITGSETNLLFFWETHGTKNYFTSVAHPNLFIATKQDYWVCLAGGPPSITDFQILENQA | did not affect induction of TH positive cells

Same assay, conditions: same concentration (100 ng/ml), 3 days

Row | Molecule | effect of replacing FGF-1/aFGF in the cocktail on TH immunoreactive cells
6 | FGF-2/bFGF: basic fibroblast growth factor | without any effect on numbers or morphology of TH immunoreactive cells
